Source: ChEMBL document CHEMBL1201862, “PubChem BioAssay data set” (2004)
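Dose response: 5 concentrations. Exposure: 48 h. Format: 96-well plates. Endpoint: linear interpolation; highest concentration if not reached. GI50 is the concentration that inhibits growth by half.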 Active and inactive are the calls of the source. Rule as the data show it: active = GI50 up to about 1.1 µM and inactive = higher.

Legend:
Test in all cases: growth of human tumour cells (NCI), 48 h
RPMI-8226 = tested on: RPMI-8226
MCF7 = tested on: MCF7
EKVX = tested on: EKVX
MOLT-4 = tested on: MOLT-4
IGROV-1 = tested on: IGROV-1
KM12 = tested on: KM12
HL-60 = tested on: HL-60
OVCAR-5 = tested on: OVCAR-5
SK-MEL-2 = tested on: SK-MEL-2
DU-145 = tested on: DU-145
PC-3 = tested on: PC-3
MDA-MB-231 = tested on: MDA-MB-231
NCI/ADR-RES = tested on: NCI/ADR-RES
HCC 2998 = tested on: HCC 2998
SK-MEL-5 = tested on: SK-MEL-5
M14 = tested on: M14
OVCAR-8 = tested on: OVCAR-8
A549 = tested on: A549
SW-620 = tested on: SW-620
ACHN = tested on: ACHN
HCT-116 = tested on: HCT-116
NCI-H460 = tested on: NCI-H460
SN12C = tested on: SN12C
LOX IMVI = tested on: LOX IMVI
OVCAR-4 = tested on: OVCAR-4
BT-549 = tested on: BT-549
HT-29 = tested on: HT-29
SF-295 = tested on: SF-295
NCI-H522 = tested on: NCI-H522
CAKI-1 = tested on: CAKI-1
COLO 205 = tested on: COLO 205
UO-31 = tested on: UO-31
SR = tested on: SR
HOP-92 = tested on: HOP-92
CCRF-CEM = tested on: CCRF-CEM
SF-539 = tested on: SF-539
Malme-3M = tested on: Malme-3M
TK-10 = tested on: TK-10
SNB-19 = tested on: SNB-19
MDA-N = tested on: MDA-N
MDA-MB-435 = tested on: MDA-MB-435
UACC-257 = tested on: UACC-257
HCT-15 = tested on: HCT-15
OVCAR-3 = tested on: OVCAR-3
U-251 = tested on: U-251
SK-OV-3 = tested on: SK-OV-3
NCI-H226 = tested on: NCI-H226
786-0 = tested on: 786-0
SF-268 = tested on: SF-268
NCI-H23 = tested on: NCI-H23
UACC-62 = tested on: UACC-62
Hs-578T = tested on: Hs-578T
HOP-62 = tested on: HOP-62
SK-MEL-28 = tested on: SK-MEL-28
T47D = tested on: T47D
SNB-75 = tested on: SNB-75
K562 = tested on: K562
RXF 393 = tested on: RXF 393
A498 = tested on: A498

CSC1=C(SC)SC(=C2SC3=C(SC(=C4SCCS4)S3)S2)S1
GI50 (RPMI-8226): > 100 µM (inactive)
GI50 (MCF7): > 100 µM (inactive)
GI50 (EKVX): > 100 µM (inactive)
GI50 (MOLT-4): > 100 µM (inactive)
GI50 (IGROV-1): > 100 µM (inactive)
GI50 (KM12): > 100 µM (inactive)
GI50 (HL-60): > 100 µM (inactive)
GI50 (OVCAR-5): > 100 µM (inactive)
GI50 (SK-MEL-2): > 100 µM (inactive)
GI50 (DU-145): > 100 µM (inactive)
GI50 (PC-3): > 100 µM (inactive)
GI50 (MDA-MB-231): > 100 µM (inactive)
GI50 (NCI/ADR-RES): > 100 µM (inactive)
GI50 (HCC 2998): > 100 µM (inactive)
GI50 (SK-MEL-5): > 100 µM (inactive)
GI50 (M14): > 100 µM (inactive)
GI50 (OVCAR-8): > 100 µM (inactive)
GI50 (A549): > 100 µM (inactive)
GI50 (SW-620): > 100 µM (inactive)
GI50 (ACHN): > 100 µM (inactive)
GI50 (HCT-116): > 100 µM (inactive)
GI50 (NCI-H460): > 100 µM (inactive)
GI50 (SN12C): > 100 µM (inactive)
GI50 (LOX IMVI): > 100 µM (inactive)
GI50 (OVCAR-4): > 100 µM (inactive)
GI50 (BT-549): > 100 µM (inactive)
GI50 (HT-29): > 100 µM (inactive)
GI50 (SF-295): > 100 µM (inactive)
GI50 (NCI-H522): > 100 µM (inactive)
GI50 (CAKI-1): > 100 µM (inactive)
GI50 (COLO 205): > 100 µM (inactive)
GI50 (UO-31): > 100 µM (inactive)
GI50 (SR): > 100 µM (inactive)
GI50 (HOP-92): > 100 µM (inactive)
GI50 (CCRF-CEM): > 100 µM (inactive)
GI50 (SF-539): > 100 µM (inactive)
GI50 (Malme-3M): > 100 µM (inactive)
GI50 (TK-10): > 100 µM (inactive)
GI50 (SNB-19): > 100 µM (inactive)
GI50 (MDA-N): > 100 µM (inactive)
GI50 (MDA-MB-435): > 100 µM (inactive)
GI50 (UACC-257): > 100 µM (inactive)
GI50 (HCT-15): > 100 µM
GI50 (OVCAR-3): > 100 µM (inactive)
GI50 (U-251): > 100 µM (inactive)
GI50 (SK-OV-3): > 100 µM (inactive)
GI50 (NCI-H226): > 100 µM (inactive)
GI50 (786-0): > 100 µM (inactive)
GI50 (SF-268): > 100 µM (inactive)
GI50 (NCI-H23): > 100 µM (inactive)
GI50 (UACC-62): > 100 µM (inactive)
GI50 (Hs-578T): > 100 µM (inactive)
GI50 (HOP-62): > 100 µM (inactive)
GI50 (SK-MEL-28): > 100 µM (inactive)
GI50 (T47D): > 100 µM (inactive)
GI50 (SNB-75): > 100 µM (inactive)

CCC12CCCN(Cc3ccccc3)C1c1c([nH]c3ccccc13)C(C(=O)OC)C2 (stereo unspecified)
GI50 (RPMI-8226): > 10 µM (inactive)
GI50 (MCF7): > 10 µM (inactive)
GI50 (MOLT-4): 5.85 µM (inactive)
GI50 (IGROV-1): > 10 µM (inactive)
GI50 (KM12): > 10 µM (inactive)
GI50 (HL-60): 7.83 µM (inactive)
GI50 (OVCAR-5): 7.89 µM (inactive)
GI50 (DU-145): > 10 µM (inactive)
GI50 (PC-3): > 10 µM (inactive)
GI50 (MDA-MB-231): > 10 µM (inactive)
GI50 (NCI/ADR-RES): > 10 µM (inactive)
GI50 (HCC 2998): > 10 µM (inactive)
GI50 (SK-MEL-5): > 10 µM (inactive)
GI50 (M14): > 10 µM (inactive)
GI50 (OVCAR-8): > 10 µM (inactive)
GI50 (A549): > 10 µM (inactive)
GI50 (SW-620): > 10 µM (inactive)
GI50 (ACHN): > 10 µM (inactive)
GI50 (HCT-116): 4.08 µM (inactive)
GI50 (SN12C): > 10 µM (inactive)
GI50 (LOX IMVI): > 10 µM (inactive)
GI50 (OVCAR-4): > 10 µM (inactive)
GI50 (BT-549): > 10 µM (inactive)
GI50 (HT-29): 6.87 µM (inactive)
GI50 (SF-295): > 10 µM (inactive)
GI50 (NCI-H522): > 10 µM (inactive)
GI50 (CAKI-1): > 10 µM (inactive)
GI50 (COLO 205): > 10 µM (inactive)
GI50 (SR): 7.64 µM (inactive)
GI50 (HOP-92): > 10 µM (inactive)
GI50 (CCRF-CEM): > 10 µM (inactive)
GI50 (SF-539): > 10 µM (inactive)
GI50 (Malme-3M): > 10 µM (inactive)
GI50 (TK-10): > 10 µM (inactive)
GI50 (SNB-19): > 10 µM (inactive)
GI50 (MDA-N): > 10 µM (inactive)
GI50 (MDA-MB-435): > 10 µM (inactive)
GI50 (UACC-257): > 10 µM (inactive)
GI50 (K562): > 10 µM (inactive)
GI50 (HCT-15): > 10 µM
GI50 (OVCAR-3): > 10 µM (inactive)
GI50 (U-251): > 10 µM (inactive)
GI50 (SK-OV-3): > 10 µM (inactive)
GI50 (786-0): > 10 µM (inactive)
GI50 (SF-268): > 10 µM (inactive)
GI50 (NCI-H23): 8.38 µM (inactive)
GI50 (UACC-62): > 10 µM (inactive)
GI50 (Hs-578T): > 10 µM (inactive)
GI50 (HOP-62): > 10 µM (inactive)
GI50 (SK-MEL-28): > 10 µM (inactive)
GI50 (T47D): 5.75 µM (inactive)
GI50 (SNB-75): > 10 µM (inactive)

CC(=O)OC1=c2ccccc2=C(O)C2C1C=NN2C(C)=O (stereo unspecified)
GI50 (RPMI-8226): > 100 µM (inactive)
GI50 (MCF7): > 100 µM (inactive)
GI50 (EKVX): 79.4 µM (inactive)
GI50 (MOLT-4): > 100 µM (inactive)
GI50 (IGROV-1): 99.3 µM (inactive)
GI50 (KM12): > 100 µM (inactive)
GI50 (HL-60): > 100 µM (inactive)
GI50 (OVCAR-5): > 100 µM (inactive)
GI50 (SK-MEL-2): > 100 µM (inactive)
GI50 (DU-145): > 100 µM (inactive)
GI50 (PC-3): > 100 µM (inactive)
GI50 (MDA-MB-231): > 100 µM (inactive)
GI50 (NCI/ADR-RES): > 100 µM (inactive)
GI50 (HCC 2998): > 100 µM (inactive)
GI50 (SK-MEL-5): > 100 µM (inactive)
GI50 (M14): > 100 µM (inactive)
GI50 (OVCAR-8): > 100 µM (inactive)
GI50 (A549): > 100 µM (inactive)
GI50 (SW-620): > 100 µM (inactive)
GI50 (ACHN): > 100 µM (inactive)
GI50 (HCT-116): > 100 µM (inactive)
GI50 (NCI-H460): > 100 µM (inactive)
GI50 (SN12C): > 100 µM (inactive)
GI50 (LOX IMVI): > 100 µM (inactive)
GI50 (OVCAR-4): > 100 µM (inactive)
GI50 (BT-549): > 100 µM (inactive)
GI50 (HT-29): > 100 µM (inactive)
GI50 (RXF 393): > 100 µM (inactive)
GI50 (SF-295): > 100 µM (inactive)
GI50 (NCI-H522): > 100 µM (inactive)
GI50 (CAKI-1): > 100 µM (inactive)
GI50 (COLO 205): 95.3 µM (inactive)
GI50 (UO-31): > 100 µM (inactive)
GI50 (HOP-92): > 100 µM (inactive)
GI50 (CCRF-CEM): > 100 µM (inactive)
GI50 (SF-539): > 100 µM (inactive)
GI50 (Malme-3M): 44.3 µM (inactive)
GI50 (TK-10): > 100 µM (inactive)
GI50 (SNB-19): > 100 µM (inactive)
GI50 (MDA-N): > 100 µM (inactive)
GI50 (MDA-MB-435): > 100 µM (inactive)
GI50 (UACC-257): > 100 µM (inactive)
GI50 (K562): 18.4 µM (inactive)
GI50 (HCT-15): > 100 µM
GI50 (OVCAR-3): > 100 µM (inactive)
GI50 (A498): > 100 µM (inactive)
GI50 (U-251): > 100 µM (inactive)
GI50 (SK-OV-3): > 100 µM (inactive)
GI50 (NCI-H226): > 100 µM (inactive)
GI50 (786-0): > 100 µM (inactive)
GI50 (SF-268): > 100 µM (inactive)
GI50 (NCI-H23): > 100 µM (inactive)
GI50 (UACC-62): > 100 µM (inactive)
GI50 (Hs-578T): 88.5 µM (inactive)
GI50 (HOP-62): > 100 µM (inactive)
GI50 (SK-MEL-28): > 100 µM (inactive)
GI50 (T47D): > 100 µM (inactive)
GI50 (SNB-75): 36.7 µM (inactive)
